Measurements reported in ChEMBL document CHEMBL4507302, “Data for DCP probe TP-020” (2021).

Experiments:
[1] = target: Mitogen-activated protein kinase kinase kinase 19 (Homo sapiens) (UniProt Q56UN5); conditions: Compound concentration 1000.0 nM
[2] = test system: Receptor-type tyrosine-protein kinase FLT3 (Homo sapiens), P36888 [D835H]; conditions: Compound concentration 1000.0 nM
[3] = target: Serine/threonine-protein kinase PLK3 (Homo sapiens) (UniProt Q9H4B4); conditions: Compound concentration 1000.0 nM
[4] = target: Bone morphogenetic protein receptor type-1A (Homo sapiens) (UniProt P36894); conditions: Compound concentration 1000.0 nM
[5] = target: Mast/stem cell growth factor receptor Kit (Homo sapiens) (UniProt P10721); conditions: Compound concentration 1000.0 nM
[6] = target: Histamine H2 receptor (Homo sapiens) (UniProt P25021); conditions: Compound concentration 10.0 uM
[7] = target: Serine/threonine-protein kinase Chk1 (Homo sapiens) (UniProt O14757); conditions: Compound concentration 1000.0 nM
[8] = target: Ribosomal protein S6 kinase alpha-1 (Homo sapiens) (UniProt Q15418); conditions: Compound concentration 1000.0 nM
[9] = target: Serine/threonine-protein kinase haspin (Homo sapiens) (UniProt Q8TF76); conditions: Compound concentration 1000.0 nM
[10] = target: Serine/threonine-protein kinase WNK4 (Homo sapiens) (UniProt Q96J92); conditions: Compound concentration 1000.0 nM
[11] = target: Ribosomal protein S6 kinase alpha-4 (Homo sapiens) (UniProt O75676); conditions: Compound concentration 1000.0 nM
[12] = target: Serine/threonine-protein kinase MARK2 (Homo sapiens) (UniProt Q7KZI7); conditions: Compound concentration 1000.0 nM
[13] = target: Ephrin type-B receptor 6 (Homo sapiens) (UniProt O15197); conditions: Compound concentration 1000.0 nM
[14] = target: Mitogen-activated protein kinase 4 (Homo sapiens) (UniProt P31152); conditions: Compound concentration 1000.0 nM
[15] = target: Dual specificity mitogen-activated protein kinase kinase 5 (Homo sapiens) (UniProt Q13163); conditions: Compound concentration 1000.0 nM
[16] = target: Mitogen-activated protein kinase 11 (Homo sapiens) (UniProt Q15759); conditions: Compound concentration 1000.0 nM
[17] = target: Serine/threonine-protein kinase WNK2 (Homo sapiens) (UniProt Q9Y3S1); conditions: Compound concentration 1000.0 nM
[18] = target: Ephrin type-A receptor 1 (Homo sapiens) (UniProt P21709); conditions: Compound concentration 1000.0 nM
[19] = target: Cyclin-dependent kinase 19 (Homo sapiens) (UniProt Q9BWU1); conditions: Compound concentration 1000.0 nM
[20] = test system: Phosphatidylinositol 4,5-bisphosphate 3-kinase catalytic subunit alpha isoform (Homo sapiens), P42336 [I800L]; conditions: Compound concentration 1000.0 nM
[21] = target: ALK tyrosine kinase receptor (Homo sapiens) (UniProt Q9UM73); conditions: Compound concentration 1000.0 nM
[22] = target: Ephrin type-A receptor 4 (Homo sapiens) (UniProt P54764); conditions: Compound concentration 1000.0 nM
[23] = target: Serine/threonine-protein kinase VRK2 (Homo sapiens) (UniProt Q86Y07); conditions: Compound concentration 1000.0 nM
[24] = target: Uncharacterized serine/threonine-protein kinase SBK3 (Homo sapiens) (UniProt P0C264); conditions: Compound concentration 1000.0 nM
[25] = target: Ribosomal protein S6 kinase alpha-5 (Homo sapiens) (UniProt O75582); conditions: Compound concentration 1000.0 nM
[26] = target: 5-hydroxytryptamine receptor 3A (Homo sapiens) (UniProt P46098); conditions: Compound concentration 10.0 uM
[27] = target: Calcium/calmodulin-dependent protein kinase type 1D (Homo sapiens) (UniProt Q8IU85); conditions: Compound concentration 1000.0 nM
[28] = target: Serine/threonine-protein kinase RIO3 (Homo sapiens) (UniProt O14730); conditions: Compound concentration 1000.0 nM
[29] = target: Cyclin-dependent kinase 7 (Homo sapiens) (UniProt P50613); conditions: Compound concentration 1000.0 nM
[30] = target: TGF-beta receptor type-2 (Homo sapiens) (UniProt P37173); conditions: Compound concentration 1000.0 nM
[31] = target: Dual serine/threonine and tyrosine protein kinase (Homo sapiens) (UniProt Q6XUX3); conditions: Compound concentration 1000.0 nM
[32] = target: SRSF protein kinase 2 (Homo sapiens) (UniProt P78362); conditions: Compound concentration 1000.0 nM
[33] = target: Serine/threonine-protein kinase mTOR (Homo sapiens) (UniProt P42345); conditions: Compound concentration 1000.0 nM
[34] = target: Protein kinase C eta type (Homo sapiens) (UniProt P24723); conditions: Compound concentration 1000.0 nM
[35] = test system: Tyrosine-protein kinase ABL1 (Homo sapiens), P00519 [H396P]; conditions: Compound concentration 1000.0 nM
[36] = target: Serine/threonine-protein kinase NLK (Homo sapiens) (UniProt Q9UBE8); conditions: Compound concentration 1000.0 nM
[37] = target: Activin receptor type-1-like (Homo sapiens) (UniProt P37023); conditions: Compound concentration 1000.0 nM
[38] = target: Ephrin type-B receptor 1 (Homo sapiens) (UniProt P54762); conditions: Compound concentration 1000.0 nM
[39] = target: cGMP-dependent protein kinase 1 (Homo sapiens) (UniProt Q13976); conditions: Compound concentration 1000.0 nM
[40] = target: Ribosomal protein S6 kinase alpha-3 (Homo sapiens) (UniProt P51812); conditions: Compound concentration 1000.0 nM
[41] = target: Serine/threonine-protein kinase PAK 1 (Homo sapiens) (UniProt Q13153); conditions: Compound concentration 1000.0 nM
[42] = target: Casein kinase I isoform gamma-1 (Homo sapiens) (UniProt Q9HCP0); conditions: Compound concentration 1000.0 nM
[43] = target: Dual specificity tyrosine-phosphorylation-regulated kinase 1B (Homo sapiens) (UniProt Q9Y463); conditions: Compound concentration 1000.0 nM
[44] = target: NUAK family SNF1-like kinase 1 (Homo sapiens) (UniProt O60285); conditions: Compound concentration 1000.0 nM
[45] = target: Ephrin type-A receptor 8 (Homo sapiens) (UniProt P29322); conditions: Compound concentration 1000.0 nM
Sequence of Ephrin type-A receptor 8 (Homo sapiens) (P29322 whole entry): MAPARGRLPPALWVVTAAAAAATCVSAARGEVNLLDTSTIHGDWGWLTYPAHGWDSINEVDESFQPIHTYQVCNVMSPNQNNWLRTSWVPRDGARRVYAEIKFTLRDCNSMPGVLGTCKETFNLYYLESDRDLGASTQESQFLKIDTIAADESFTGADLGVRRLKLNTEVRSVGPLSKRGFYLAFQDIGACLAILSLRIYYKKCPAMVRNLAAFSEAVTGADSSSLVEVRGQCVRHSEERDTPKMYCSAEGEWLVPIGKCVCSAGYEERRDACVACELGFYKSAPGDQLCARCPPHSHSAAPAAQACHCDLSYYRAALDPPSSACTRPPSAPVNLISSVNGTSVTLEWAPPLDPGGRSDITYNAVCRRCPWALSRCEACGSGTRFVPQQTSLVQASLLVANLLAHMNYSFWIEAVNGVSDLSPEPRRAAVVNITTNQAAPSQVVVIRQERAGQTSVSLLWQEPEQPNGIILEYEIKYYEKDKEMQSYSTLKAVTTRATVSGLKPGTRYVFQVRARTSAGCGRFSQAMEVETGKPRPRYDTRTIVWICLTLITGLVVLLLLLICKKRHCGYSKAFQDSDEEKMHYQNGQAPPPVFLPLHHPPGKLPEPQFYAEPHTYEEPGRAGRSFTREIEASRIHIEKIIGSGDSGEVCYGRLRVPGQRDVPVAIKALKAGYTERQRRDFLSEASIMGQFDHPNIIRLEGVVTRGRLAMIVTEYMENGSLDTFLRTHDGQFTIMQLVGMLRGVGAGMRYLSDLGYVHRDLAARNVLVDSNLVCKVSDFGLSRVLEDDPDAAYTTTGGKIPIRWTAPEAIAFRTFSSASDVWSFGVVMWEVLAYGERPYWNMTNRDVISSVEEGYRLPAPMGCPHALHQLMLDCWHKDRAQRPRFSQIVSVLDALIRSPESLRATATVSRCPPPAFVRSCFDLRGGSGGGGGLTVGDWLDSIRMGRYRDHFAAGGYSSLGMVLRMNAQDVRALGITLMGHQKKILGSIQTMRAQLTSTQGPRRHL

Sequence of Phosphatidylinositol 4,5-bisphosphate 3-kinase catalytic subunit alpha isoform (Homo sapiens), P42336 [I800L] (P42336 whole entry I800L, canonical isoform): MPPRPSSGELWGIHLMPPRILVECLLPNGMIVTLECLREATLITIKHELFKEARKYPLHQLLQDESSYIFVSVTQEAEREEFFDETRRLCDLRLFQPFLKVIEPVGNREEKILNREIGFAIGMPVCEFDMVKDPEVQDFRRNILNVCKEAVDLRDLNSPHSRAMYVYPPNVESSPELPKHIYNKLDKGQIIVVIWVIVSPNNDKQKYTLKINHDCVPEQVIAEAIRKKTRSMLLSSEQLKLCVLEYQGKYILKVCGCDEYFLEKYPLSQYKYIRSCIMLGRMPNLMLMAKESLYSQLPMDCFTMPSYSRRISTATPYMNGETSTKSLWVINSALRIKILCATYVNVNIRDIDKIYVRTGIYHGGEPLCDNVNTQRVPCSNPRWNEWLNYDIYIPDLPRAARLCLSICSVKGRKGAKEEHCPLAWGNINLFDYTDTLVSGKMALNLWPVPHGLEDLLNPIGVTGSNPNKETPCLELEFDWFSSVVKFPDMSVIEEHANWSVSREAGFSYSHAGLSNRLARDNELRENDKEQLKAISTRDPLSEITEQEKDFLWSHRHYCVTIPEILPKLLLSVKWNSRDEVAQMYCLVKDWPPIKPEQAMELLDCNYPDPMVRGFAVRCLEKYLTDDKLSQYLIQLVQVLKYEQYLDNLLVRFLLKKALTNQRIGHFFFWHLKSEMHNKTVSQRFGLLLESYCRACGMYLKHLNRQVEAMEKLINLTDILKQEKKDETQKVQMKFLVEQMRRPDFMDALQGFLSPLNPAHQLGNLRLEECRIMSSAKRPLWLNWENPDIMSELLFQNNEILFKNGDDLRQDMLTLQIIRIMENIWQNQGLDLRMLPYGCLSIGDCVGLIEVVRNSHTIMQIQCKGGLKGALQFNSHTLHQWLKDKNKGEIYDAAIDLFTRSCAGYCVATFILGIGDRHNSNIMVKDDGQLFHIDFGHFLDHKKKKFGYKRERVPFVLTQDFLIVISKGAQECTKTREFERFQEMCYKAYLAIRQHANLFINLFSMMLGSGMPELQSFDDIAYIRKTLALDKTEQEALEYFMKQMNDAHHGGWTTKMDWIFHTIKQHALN
Sequence of Serine/threonine-protein kinase WNK4 (Homo sapiens) (Q96J92 whole entry): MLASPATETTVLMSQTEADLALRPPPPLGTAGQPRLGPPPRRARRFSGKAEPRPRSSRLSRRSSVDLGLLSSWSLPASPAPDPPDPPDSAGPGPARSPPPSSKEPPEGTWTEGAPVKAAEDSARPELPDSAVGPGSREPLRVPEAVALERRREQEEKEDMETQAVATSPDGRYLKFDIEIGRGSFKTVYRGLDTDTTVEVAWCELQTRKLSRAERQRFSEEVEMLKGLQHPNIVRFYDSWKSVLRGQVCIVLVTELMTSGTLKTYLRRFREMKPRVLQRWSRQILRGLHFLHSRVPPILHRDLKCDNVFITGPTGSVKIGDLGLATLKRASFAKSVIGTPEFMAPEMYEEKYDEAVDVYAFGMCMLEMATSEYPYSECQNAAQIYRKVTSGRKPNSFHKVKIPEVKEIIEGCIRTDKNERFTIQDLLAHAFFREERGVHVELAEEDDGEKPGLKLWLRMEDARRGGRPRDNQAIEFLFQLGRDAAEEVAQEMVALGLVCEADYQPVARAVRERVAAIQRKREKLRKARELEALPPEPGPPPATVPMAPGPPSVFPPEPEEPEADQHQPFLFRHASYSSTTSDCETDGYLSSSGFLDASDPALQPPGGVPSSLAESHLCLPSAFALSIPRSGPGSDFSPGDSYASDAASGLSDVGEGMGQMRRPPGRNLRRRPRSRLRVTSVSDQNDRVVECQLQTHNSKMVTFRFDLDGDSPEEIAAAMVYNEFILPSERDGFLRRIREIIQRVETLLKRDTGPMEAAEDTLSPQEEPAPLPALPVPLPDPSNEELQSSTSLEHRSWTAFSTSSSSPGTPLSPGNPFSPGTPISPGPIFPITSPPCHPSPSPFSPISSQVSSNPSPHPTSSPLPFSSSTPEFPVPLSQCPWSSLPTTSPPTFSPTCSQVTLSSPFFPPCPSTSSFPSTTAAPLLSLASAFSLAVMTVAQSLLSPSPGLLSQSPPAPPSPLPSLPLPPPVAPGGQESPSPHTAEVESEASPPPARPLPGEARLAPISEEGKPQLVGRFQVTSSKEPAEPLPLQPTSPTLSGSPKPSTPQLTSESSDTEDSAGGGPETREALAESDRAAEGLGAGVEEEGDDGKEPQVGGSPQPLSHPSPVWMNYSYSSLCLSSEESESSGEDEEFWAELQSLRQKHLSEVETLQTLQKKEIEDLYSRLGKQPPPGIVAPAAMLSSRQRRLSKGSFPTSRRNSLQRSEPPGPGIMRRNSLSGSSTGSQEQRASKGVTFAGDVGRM
Sequence of Calcium/calmodulin-dependent protein kinase type 1D (Homo sapiens) (Q8IU85 whole entry, looked up): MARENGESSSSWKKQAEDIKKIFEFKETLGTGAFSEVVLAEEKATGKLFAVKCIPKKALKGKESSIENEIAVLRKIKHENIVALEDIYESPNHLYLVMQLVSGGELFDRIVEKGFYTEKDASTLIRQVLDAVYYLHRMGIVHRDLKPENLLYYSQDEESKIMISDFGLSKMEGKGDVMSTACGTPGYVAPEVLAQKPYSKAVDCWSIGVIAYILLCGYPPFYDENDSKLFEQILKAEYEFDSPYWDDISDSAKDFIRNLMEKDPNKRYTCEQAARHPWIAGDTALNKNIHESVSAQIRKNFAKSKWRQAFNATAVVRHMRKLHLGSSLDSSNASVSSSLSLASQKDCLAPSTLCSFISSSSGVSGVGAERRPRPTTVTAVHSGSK
Sequence of Ribosomal protein S6 kinase alpha-1 (Homo sapiens) (Q15418 whole entry): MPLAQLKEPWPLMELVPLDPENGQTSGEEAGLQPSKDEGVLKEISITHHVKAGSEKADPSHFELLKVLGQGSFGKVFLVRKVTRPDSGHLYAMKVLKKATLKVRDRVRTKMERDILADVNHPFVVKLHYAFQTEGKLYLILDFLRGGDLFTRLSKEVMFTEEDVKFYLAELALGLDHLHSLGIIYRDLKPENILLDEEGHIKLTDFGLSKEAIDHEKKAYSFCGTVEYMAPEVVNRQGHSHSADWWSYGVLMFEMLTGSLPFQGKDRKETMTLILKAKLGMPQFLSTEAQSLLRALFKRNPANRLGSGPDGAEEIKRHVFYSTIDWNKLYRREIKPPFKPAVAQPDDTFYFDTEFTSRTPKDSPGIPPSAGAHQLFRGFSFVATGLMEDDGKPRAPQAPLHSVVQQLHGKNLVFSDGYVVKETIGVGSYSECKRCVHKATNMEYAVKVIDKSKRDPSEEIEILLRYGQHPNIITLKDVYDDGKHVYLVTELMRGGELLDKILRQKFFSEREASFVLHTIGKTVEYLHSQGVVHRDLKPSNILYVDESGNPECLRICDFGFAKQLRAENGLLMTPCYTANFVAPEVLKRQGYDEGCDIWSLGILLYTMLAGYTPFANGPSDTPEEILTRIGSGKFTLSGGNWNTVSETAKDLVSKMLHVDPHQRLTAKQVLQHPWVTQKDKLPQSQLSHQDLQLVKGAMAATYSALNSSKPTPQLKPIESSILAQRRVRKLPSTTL
Sequence of Serine/threonine-protein kinase PLK3 (Homo sapiens) (Q9H4B4 whole entry, looked up): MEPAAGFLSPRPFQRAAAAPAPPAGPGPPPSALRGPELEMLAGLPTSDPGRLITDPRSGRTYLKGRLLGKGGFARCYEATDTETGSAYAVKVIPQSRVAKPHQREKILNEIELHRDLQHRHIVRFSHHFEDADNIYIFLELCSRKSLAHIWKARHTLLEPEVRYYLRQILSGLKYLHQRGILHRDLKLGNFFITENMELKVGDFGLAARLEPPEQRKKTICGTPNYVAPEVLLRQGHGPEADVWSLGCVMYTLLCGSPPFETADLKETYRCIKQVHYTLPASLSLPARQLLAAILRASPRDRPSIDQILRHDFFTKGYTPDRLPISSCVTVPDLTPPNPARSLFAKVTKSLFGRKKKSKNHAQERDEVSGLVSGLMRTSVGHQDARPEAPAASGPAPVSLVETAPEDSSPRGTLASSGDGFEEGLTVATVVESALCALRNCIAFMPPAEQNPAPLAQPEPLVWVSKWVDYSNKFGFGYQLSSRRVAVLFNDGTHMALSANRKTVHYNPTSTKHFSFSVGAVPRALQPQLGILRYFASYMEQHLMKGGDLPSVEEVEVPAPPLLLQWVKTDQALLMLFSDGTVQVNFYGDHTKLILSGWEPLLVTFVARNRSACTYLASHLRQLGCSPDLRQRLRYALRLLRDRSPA

## Nc1cnc(N2CCc3cc(S(=O)(=O)Nc4c(F)cc(Cl)cc4F)cc(N4CCCC4=O)c32)nc1
[1]
  residual activity: 100%
[2]
  residual activity: 100%
[3]
  residual activity: 100%
[4]
  residual activity: 91%
[5]
  residual activity: 100%
[6]
  inhibition: 8.19%
[7]
  residual activity: 95%
[8]
  residual activity: 93%
[9]
  residual activity: 100%
[10]
  residual activity: 100%
[11]
  residual activity: 100%
[12]
  residual activity: 74%
[13]
  residual activity: 100%
[14]
  residual activity: 100%
[15]
  residual activity: 84%
[16]
  residual activity: 100%
[17]
  residual activity: 100%
[18]
  residual activity: 99%
[19]
  residual activity: 100%
[20]
  residual activity: 80%
[21]
  residual activity: 100%
[22]
  residual activity: 100%
[23]
  residual activity: 100%
[24]
  residual activity: 100%
[25]
  residual activity: 95%
[26]
  inhibition: 0.32%
[27]
  residual activity: 97%
[28]
  residual activity: 100%
[29]
  residual activity: 100%
[30]
  residual activity: 92%
[31]
  residual activity: 100%
[32]
  residual activity: 100%
[33]
  residual activity: 100%
[34]
  residual activity: 80%
[35]
  residual activity: 86%
[36]
  residual activity: 100%
[37]
  residual activity: 86%
[38]
  residual activity: 92%
[39]
  residual activity: 97%
[40]
  residual activity: 84%
[41]
  residual activity: 89%
[42]
  residual activity: 97%
[43]
  residual activity: 100%
[44]
  residual activity: 100%
[45]
  residual activity: 100%

## Cn1nc(C(F)(F)F)cc1-c1cnc(N2CCc3cc(S(=O)(=O)Nc4c(F)cc(Cl)cc4F)cc(N4CCCC4=O)c32)nc1 [TP-020]
[1]
  residual activity: 82%
[2]
  residual activity: 100%
[3]
  residual activity: 79%
[4]
  residual activity: 98%
[5]
  residual activity: 94%
[6]
  inhibition: 12.1%
[7]
  residual activity: 100%
[8]
  residual activity: 99%
[9]
  residual activity: 68%
[10]
  residual activity: 83%
[11]
  residual activity: 82%
[12]
  residual activity: 100%
[13]
  residual activity: 82%
[14]
  residual activity: 100%
[15]
  residual activity: 83%
[16]
  residual activity: 100%
[17]
  residual activity: 81%
[18]
  residual activity: 100%
[19]
  residual activity: 100%
[20]
  residual activity: 77%
[21]
  residual activity: 80%
[22]
  residual activity: 97%
[23]
  residual activity: 61%
[24]
  residual activity: 79%
[25]
  residual activity: 86%
[26]
  inhibition: 7.45%
[27]
  residual activity: 99%
[28]
  residual activity: 100%
[29]
  residual activity: 75%
[30]
  residual activity: 81%
[31]
  residual activity: 83%
[32]
  residual activity: 34%
[33]
  residual activity: 78%
[34]
  residual activity: 90%
[35]
  residual activity: 87%
[36]
  residual activity: 98%
[37]
  residual activity: 87%
[38]
  residual activity: 100%
[39]
  residual activity: 87%
[40]
  residual activity: 100%
[41]
  residual activity: 100%
[42]
  residual activity: 100%
[43]
  residual activity: 100%
[44]
  residual activity: 89%
[45]
  residual activity: 65%
